This is an account of results in US12023308B2, “Agents for reversing toxic proteinopathies” (THE BROAD INSTITUTE, INC., priority 2019, dated 2024).

Like-named read-outs stand apart in the source and are kept apart here.

Series [1] concerns MUC1-fs. The series can be described thus: MUC1-fs immunofluorescence high-content imaging assay in P cells. In kind it is cell-based, human.
Procedure: Cells grown on CellCarrier-96 or -384 well Ultra microplates (PerkinElmer) were fixed 10 min in PBS containing 4% PFA (Electron Microscopy Sciences), permeabilized 15 min in 0.5% Triton X100 (X100-100ML, Sigma-Aldrich), blocked for 1 hr in blocking reagent (100 mM Tris HCL pH8; 150 mM NaCL; 5 g/L Blocking Reagent [11096176001, Roche]) and treated for 1 hr with primary antibodies diluted in blocking reagent (1:500, monoclonal Fab-A-VSH anti-fsMUC1, AbD22655.2, Bio-Rad; 1:2000, monoclonal Mouse anti-MUC1 (CD227), 60137, Stemcell Technologies; 1:200, polyclonal, Mouse anti-GM130, ab169276, Abcam; 1:100, polyclonal, Rabbit anti-TMED9, 216201-AP, Proteintech; 1:800, polyclonal, Rabbit anti-SEC31A, 17913-1-AP, Proteintech; 1:400, monoclonal, Rabbit anti-EEA1 (C45B10), 3288S, Cell signaling technology; 1:100, polyclonal, Rabbit anti-ERGIC-53, E1031, Sigma-Aldrich; 1:400, monoclonal, Mouse anti-LAMP1 (D401S), 15665, Cell signaling technology; 1:1000, polyclonal, Rabbit anti-Calnexin, ab22595, Abcam; 1:2000, monoclonal, Rabbit anti-GM130 (D6B1) XP, 12480, Cell signaling technology; 1:200, monoclonal, Rabbit anti TNG46, ab50595, Abcam; 1:100, monoclonal, Rabbit anti-Rab7 (D95F2) XP, 9367, Cell signaling technology; 1:100, monoclonal, Rabbit anti-Rab11 (D4F5) XP, 5589, Cell signaling technology). Fixed, stained cells were washed three times in PBS and incubated for 1 hr with secondary antibodies in blocking solution (1:500, Alexa Fluor 488® Goat anti-Mouse IgG, A-11029, Thermo Fisher Scientific®; 1:500, Alexa Fluor 647® F(ab′)2-Goat anti-Rabbit IgG, A21246, Thermo Fisher Scientific®; 1:2000, Hoechst 33342, H3570, Thermo Fisher Scientific®), then washed three times in PBS and imaged.
Cell nuclei were first identified using Hoechst staining, and cell number was calculated. Cytoplasmic regions were then detected around each nucleus based on combined channels. The cells from the edge of the field were eliminated from the analysis. For the quantification of protein abundance, the total signal intensity value for each antibody was calculated separately in the cell cytoplasm and the average signal per cell was calculated for each well.
P cells were seeded 24 hr prior to compound treatment at a density of 12,000 cells/well in 384 well Cell Carrier Ultra plates (6057308, Perkin Elmer), pre-coated with 0.25 mg/mL Synthemax II SC Substrate (3535, Corning). Compounds of the repurposing library set (Corsello et al., 2017) were used at 5 doses (35, 3.5, 0.35, 0.035 and 0.0035 μM) for the primary screen and 10 doses (16, 5.6, 1.8, 0.6, 0.21, 0.07, 0.02, 0.008, 0.002 and 0.0008 μM) for the following screens. The compounds, in two replicates, were transferred from compound source plates to the cell plates using the HighRes Pin Tool. […] After 48 hr incubation, cells were fixed for 20 min in 4% PFA (Electron Microscopy Sciences) in PBS, washed twice, then permeabilized (10 min) with 0.5% Triton-X100 (X100-100ML, Sigma-Aldrich) in PBS and washed once more. Cells were blocked for 10 min at RT with Blocking solution (100 mM Tris HCL pH8; 150 mM NaCL; 5 g/L Blocking Reagent [11096176001, Roche]), then incubated 90 min at RT with one of the following primary antibodies in Roche Blocking solution: 1:500, monoclonal Fab-A-VSH anti-MUC1-fs, AbD22655.2, Bio-Rad; 1:2000, monoclonal mouse anti-MUC1 (214D4), 05-652-KC, Millipore; 1:1000, monoclonal, Rabbit anti-GM130 (D6B1) XP, 12480, Cell signaling technology. […]
Series [2] is described as follows: Dose response exposure PK study in male 129-ELITE mice. In kind it is in vivo, mouse. The conditions noted are these: single p.o. doses. How it is done:
4) A pharmacokinetic study was performed by Charles River Labs (CRL) (Worcester, Mass., USA) in fed male 129-ELITE mice (study EF-0024-DA-MI) to determine the dose response exposure of BRD-4780, BRD-1365 and BRD-7709 in plasma, kidney, liver and eye. Brain exposure to BRD-4780 at 30 mg/kg was also evaluated A single dose of BRD-4780 was administered at 30.0 mg/kg or 100 mg/kg orally (p.o) in a clear solution of 5% dextrose in water (D5W). For BRD-1365 and BRD-7709, a single dose of either compound was administered at 10.0 mg/kg, 30.0 mg/kg, 50.0 mg/kg or 100 mg/kg orally (p.o) in a clear solution of 5% dextrose in water (D5W). Blood, kidney, liver and eye tissue were collected from n=3 mice per dose group at six time points post p.o. dose administration (1, 2, 6, 10, 16 and 24 hours) with all three compounds. Brain tissue was collected from n=3 mice per dose group at six time points post p.o. dose administration (1, 2, 6, 10, 16 and 24 hours) with BRD-4780 at 30 mg/kg. Plasma obtained by centrifugation and tissue fragments were homogenized. Plasma and tissue drug concentration was determined by LC-MS/MS and reported as drug concentration in ng/mL for plasma and ng/mg for kidney, liver and eye tissue, plotted as the mean±standard deviation concentration for males for BRD-4780 ([…]), BRD-1365 (FIG. 11K) and BRD-7709 (FIG. 11M). Standard pharmacokinetic parameters were calculated for males for BRD-4780 ([…]), BRD-1365 (FIG. 11O) and BRD-7709 (FIG. 11P).

For series [3], the system named is MUC1-fs. Put plainly: Immunoblot analysis of MUC1-fs in P cells under pathway perturbations. The note with it: for effect on BRD-4780-mediated MUC1-fs clearance (immunoblot): with BRD-4780 (5 μM). Format: cell-based, human.
Source text: Cells were lysed in lysing buffer solution (9803, Cell Signaling Technology) containing protease inhibitors (05892791001, Roche) and phosphatase inhibitors (04906837001, Roche). […] To normalize protein concentration, proteins in the supernatant of cells or of kidney lysates were quantified using the Pierce BCA Protein Assay Kit (23225, Thermo Fisher Scientific®). Normalized protein lysates were then mixed with NuPAGE LDS sample buffer (NP0008, Thermo Scientific) and NuPAGE reducing agent (NP0004, Thermo Scientific) and heated to 75° C. for 10 min prior to SDS-PAGE gel electrophoresis using NuPAGE Tris-Acetate SDS Running Buffer (LA0041, Thermo Scientific) or NuPAGE MES SDS running buffer (NP0002, Thermo Fisher Scientific®) depending on protein molecular weight of interest. Electrophoretically separated proteins were transferred to a nitrocellulose membrane (1704158, BioRad) using Trans-Blot® Turbo™ Blotting System (1704155, BioRad) following manufacturer's protocol. Membranes were blocked in 5% Nonfat Dry Milk (9999S, Cell Signaling Technology) in PBS with 0.1% Tween® 20 (PBS-T), and probed with primary antibody overnight at 4° C. Following three washes with PBS-T, the membranes were incubated with secondary antibody for 1 hr at room temperature, washed three more times in PBS-T, and incubated with Super Signal West Dura (34076, Thermo Fisher Scientific®) or Super Signal West Pico (34087, Thermo Fisher Scientific®) and immunoreactive bands were imaged by G:BOX Chemi XT4 (G:BOX-CHEMI-XT4, Syngene).
Detection of MUC1-fs in P cells at baseline and following secretory pathway perturbations was performed using immunoblot and IF analyses. For immunoblot experiments (FIGS. 5E and 13D), P cells were grown in 6-well plates to high confluence. For IF experiments (FIGS. 5B-5D and 13A-13C), P cells were plated in 384-well plates at 12,000 cells/well. Following 24 hr, cells were treated with 5 μM BRD-4780 or DMSO alone, or in combination with 100 nM Bafilomycin A (B1793, Sigma-Aldrich), or 200 ng/mL Brefeldin A (B7651, Sigma-Aldrich) for a maximum period of 24 hr as indicated. For TMED9 or Nischarin depletion experiments, transduced/transfected P cells were plated either in 96-well plates at 60,000 cells/well for IF (FIGS. 6C, 6D and 14B), or grown in 6-well plates to high confluence for immunoblot detection (FIGS. 6B and 14C). Cells were then treated with 5 μM BRD-4780 or DMSO for 24 hr (for IF detection) or 72 hr (for immunoblot analysis) and were processed accordingly.
For a further series, the system named is ATF6. Put plainly: Immunoblot of BiP in THP-treated P cells. The conditions noted are these: P cells treated with THP (100 nM). Format: cell-based, human. How it is done: (§1) Cells were lysed in lysing buffer solution (9803, Cell Signaling Technology) containing protease inhibitors (05892791001, Roche) and phosphatase inhibitors (04906837001, Roche). Mouse kidney tissues were lysed by tissue homogenizer (Tissue-Tearo™, BioSpec Products) in lysing buffer solution containing inhibitors as above, followed by 20 min rocking at 4° C. and centrifugation at 16,000 g, 4° C. for 5 min. To normalize protein concentration, proteins in the supernatant of cells or of kidney lysates were quantified using the Pierce BCA Protein Assay Kit (23225, Thermo Fisher Scientific®). Normalized protein lysates were then mixed with NuPAGE LDS sample buffer (NP0008, Thermo Scientific) and NuPAGE reducing agent (NP0004, Thermo Scientific) and heated to 75° C. for 10 min prior to SDS-PAGE gel electrophoresis using NuPAGE Tris-Acetate SDS Running Buffer (LA0041, Thermo Scientific) or NuPAGE MES SDS running buffer (NP0002, Thermo Fisher Scientific®) depending on protein molecular weight of interest. Electrophoretically separated proteins were transferred to a nitrocellulose membrane (1704158, BioRad) using Trans-Blot® Turbo™ Blotting System (1704155, BioRad) following manufacturer's protocol. Membranes were blocked in 5% Nonfat Dry Milk (9999S, Cell Signaling Technology) in PBS with 0.1% Tween® 20 (PBS-T), and probed with primary antibody overnight at 4° C. […]
A general note: Immunoblotting shows a protein as a band on a membrane.

The subject of the next series is IRE. Put plainly: RT-PCR analysis of XBP1 splicing in THP-treated P cells. In kind it is cell-based, human. The note with it: P cells treated with THP (100 nM). On the procedure: XBP1 splicing was analyzed by standard RT-PCR. Briefly, RNA was isolated from patient cells using a RNeasy Mini Kit (74106, Qiagen). One μg of RNA was converted to cDNA using the SuperScript First-Strand Synthesis system for RT-PCR (11904-018, Invitrogen). The primer sequences used are as follows: Human XBP1 Forward Primer: 5′ TTACGAGAGAAAACTCATGGCC 3′ (SEQ ID NO: 12). Human XBP1 Reverse Primer: 5′ GGGTCCAAGTTGTCCAGAATGC 3′ (SEQ ID NO: 13). PCR was carried out on 3 μL of the resulting cDNA solution using the OneTaq Hot Start Master Mix (M0484S, NEB). Five μL of PCR product was run on a 2% agarose gel for 90 min at 150 V.

The subject of the next series is PERK. Put plainly: Immunoblot of eIF2a phosphorylation in P cells. In kind it is cell-based, human. How it is done: as §1
The test system of the next series is total MUC1 mRNA. The series can be described thus: MUC1 transcription assay (RT-PCR profiling screen) in P cells. Format: cell-based, human. The note with it: preliminary in vitro experiments in P cells. On the procedure:
qPCR was performed using a previously described protocol (Bittker, 2012). P cells seeded at 2000 cells/well in 384-well, clear bottom, white wall plates were grown for 24 hr, then treated with profiling compounds transferred by pinning to duplicate plates. JQ1 (250 nM) and DMSO were used for controls as above. After 24 hr, cells were washed and cDNAs were made using ABI Cells-to-Ct kit (Thermo Fisher Scientific®, Waltham, Mass.). MUC1 and HMBS delta Cp values were determined using a Roche LightCycler 480 Instrument and TaqMan probes for MUC1 FAM (4351368 assay ID Hs00159357_m1) and HMBS VIC (4448486-assay ID Hs00609297_m1) (Thermo Fisher Scientific®, Waltham, Mass.), in 5 μL reactions. The fold change effect of the compounds on total MUC1 mRNA was normalized to JQ1 and DMSO controls, as described above.

Series [4] concerns MUC1-fs. Put plainly: MUC1-fs subcellular distribution (co-localization IF) in P cells. Format: cell-based, human.
Procedure: Cell nuclei were first identified using Hoechst staining, and cell number was calculated. Cytoplasmic regions were then detected around each nucleus based on combined channels. The cells from the edge of the field were eliminated from the analysis. For the quantification of protein abundance, the total signal intensity value for each antibody was calculated separately in the cell cytoplasm and the average signal per cell was calculated for each well. For quantitation of MUC1-fs cellular distribution and trafficking, the analysis was performed as described in FIG. 13A using the “spot” identification feature for the detection of MUC1-fs and the different organelles.
Detection of MUC1-fs in P cells at baseline and following secretory pathway perturbations was performed using immunoblot and IF analyses. […] For IF experiments (FIGS. 5B-5D and 13A-13C), P cells were plated in 384-well plates at 12,000 cells/well.
The subject of series [5] is P cells. Put plainly: THP-induced apoptosis (caspase 3/7) in N and P cells. In kind it is cell-based, human. The note with it: P cells compared to N cells, 72 hour.
Procedure: To study apoptosis and cell death in N and P cells, 384 well Cell Carrier Ultra plates (6057308, Perkin Elmer), pre-coated with 0.25 mg/mL Synthemax II SC Substrate (3535, Corning) were used. […] CellEvent Caspase-3/7 Green Detection Reagent (C10423, Thermo Fisher Scientific®) and DRAQ7 (DR71000, Biostatus) were used at 1:5000 to monitor apoptosis and cell death respectively. Cells were imaged daily during 4 days to monitor viability and image analysis was performed as described below. For rescue experiments, P cells were plated on 96 well Cell Carrier Ultra microplates (6055302, Perkin Elmer) at 30,000 cells/well and cultured for 24 hr. […]
Caspase 3/7 activation and/or DRAQ7 staining were used to calculate the fraction of cells going through apoptosis and/or cell death, respectively. Single cells were first identified using the digital phase contrast channel and cell number was calculated. Fluorescence intensities were then measured and the threshold for Caspase 3/7 and DRAQ7 positive staining was determined. As an output, the fraction of live (neither caspase3/7 nor DRAQ7 signal detected), apoptotic (caspase3/7 positive) or dead cells (DRAQ7 positive) was calculated in each well at a particular time point.
Cell viability was determined using caspase activation as described above.
Series [6] deals with P cells. Put plainly: P cell viability upon THP treatment (live imaging, rescue). In kind it is cell-based, human. The note with it: Homo sapiens; DMSO pre-treatment, 5 days THP.
Procedure: To study apoptosis and cell death in N and P cells, 384 well Cell Carrier Ultra plates (6057308, Perkin Elmer), pre-coated with 0.25 mg/mL Synthemax II SC Substrate (3535, Corning) were used. […] CellEvent Caspase-3/7 Green Detection Reagent (C10423, Thermo Fisher Scientific®) and DRAQ7 (DR71000, Biostatus) were used at 1:5000 to monitor apoptosis and cell death respectively. Cells were imaged daily during 4 days to monitor viability and image analysis was performed as described below. For rescue experiments, P cells were plated on 96 well Cell Carrier Ultra microplates (6055302, Perkin Elmer) at 30,000 cells/well and cultured for 24 hr. BRD-4780 (5 μM) was applied as a pretreatment for 48 hr prior to thapsigargin exposure and throughout the experiment. Thapsigargin was applied at increasing doses and the plates were imaged daily thereafter.
For the measurement of P cell rescue from THP-induced cell death by BRD-4780 (FIGS. 3I and 3J), no dyes were added to avoid any influence on cell growth. Digital phase contrast images were used for cell identification and count, and autofluorescence in the far-red channel was used for detection of dead cells. Cells with no autofluorescence were identified and calculated as live cell.
P cells were seeded 12 hr prior to profiling compound treatment at a density of 12,000 cells/well in 384 well Cell Carrier Ultra plates (6057308, Perkin Elmer), pre-coated with 0.25 mg/mL Synthemax II SC Substrate (3535, Corning). After 24 hr, CellEvent Caspase-3/7 Green Detection Reagent (C10423, Thermo Fisher Scientific®) and DRAQ7 (DR71000, Biostatus) were added at 1:5000 final dilution in the presence or absence of thapsigargin (100 nM). Cells were imaged daily during 7 days to monitor viability. Image acquisition and analysis was done as described above and viability was assessed as fraction of live cells at day 5 of thapsigargin treatment, and at the day 6 for DMSO.

In the case of `CC(C)[C@@H]1[C@H]2CC[C@H](C2)[C@H]1N` (single isomer, unassigned) [BRD-7709], the “FS MUC1 cytoplasm EMax” value with MUC1-fs [1] (high-content imaging assay) is given as −39%. In the series on MUC1-fs [1] (high-content imaging assay; read-out: FS MUC1 cytoplasm IC50), the IC50 (in general, the concentration at which inhibition is half-maximal) is 0.66 µM. For the same molecule, the “dose proportionality of AUC exposures” value in series [2] is reported as “nearly dose proportional”. For PF-429242, the “MUC1-fs abundance (immunoblot)” value with MUC1-fs [3] (10 μM, 24 hours) was “MUC1-fs accumulation”. For the same molecule, the “ATF6 activation (BiP abundance)” value in the series on ATF6 is reported as “dose-dependent reduction of BiP abundance”. With `CC(C)C[C@H](NC(=O)[C@H](Cc1ccccc1)NC(=O)c1cnccn1)B(O)O` [Bortezomib], the “effect on BRD-4780-mediated MUC1-fs clearance (immunoblot)” value (shortened to “effect”) in the series with MUC1-fs [3] was “did not affect MUC1-fs removal by BRD-4780”. For the molecule `Cc1cc(=O)oc2c(C=O)c(O)ccc12` [Compound 4μ8c], in the series on IRE, the “IRE activation (XBP1 splicing)” value is given as “dose-dependent inhibition of XBP1 splicing”. Regarding `Cc1cccc(CC(=O)N2CCc3c2ccc(-c2cn(C)c4ncnc(N)c24)c3F)n1` [GSK2656157], in the series with PERK, the “PERK activation (eIF2a phosphorylation)” value is reported as “dose-dependent reduction of eIF2a phosphorylation”.

On to `CC(C)[C@H]1[C@@H]2CC[C@@H](C2)[C@@H]1N` (single isomer, unassigned) [BRD-1365], for which, in the series on MUC1-fs [1] (high-content imaging assay), the “FS MUC1 cytoplasm EMax” value is listed as −39%. Further, the IC50 in the series with MUC1-fs [1] (read-out: FS MUC1 cytoplasm IC50; high-content imaging assay) worked out at 0.73 µM. Moreover, the “dose proportionality of AUC exposures” value in series [2] was “not dose proportional”. For the molecule `Cc1sc2c(c1C)C(c1ccc(Cl)cc1)=N[C@@H](CC(=O)OC(C)(C)C)c1nnc(C)n1-2` [JQ1, reference compound], the “transcriptional suppression of both MUC1-fs and MUC1-wt” value with total MUC1 mRNA amounted to 100%. Consider `CO/C1=C\C(C)=C\[C@@H](C)[C@@H](O)[C@@H](C)C/C(C)=C/C=C/[C@H](OC)[C@@H]([C@@H](C)[C@@H](O)[C@H](C)[C@@]2(O)C[C@@H](O)[C@H](C)[C@@H](C(C)C)O2)OC1=O` [Bafilomycin A], for which the “effect” value with MUC1-fs [3] was “prevented BRD-4780 from clearing mutant MUC1-fs”. In the series with MUC1-fs [4], the MUC1-fs subcellular distribution result is “accumulation of MUC1-fs in the late secretory pathway”. Consider `C/C=C(/C)C(=O)O[C@H]1C(C)=C2[C@H]([C@@H]1OC(=O)CCCCCCC)[C@@](C)(OC(C)=O)C[C@H](OC(=O)CCC)[C@@]1(O)[C@H]2OC(=O)[C@@]1(C)O` [THP, thapsigargin, reference compound], for which the “susceptibility of P cells to THP-induced apoptosis” value in the series on P cells [5] was “higher susceptibility to apoptosis compared to N cells”. In addition, the concentration for a half-maximal effect (EC50) (commonly the concentration at which the effect is half-maximal) in the series on P cells [6] turned out to be 0.017 µM. Turning to `C[C@H]1CCC/C=C/[C@@H]2C[C@H](O)C[C@H]2[C@H](O)/C=C/C(=O)O1` [BFA, Brefeldin A], the “effect” value in the series on MUC1-fs [3] was “abrogated the effect of BRD-4780 on MUC1-fs clearance”. Besides, in the series with MUC1-fs [4], the MUC1-fs subcellular distribution result is recorded as “MUC1-fs accumulation in the ER”.
